Measurements as given in the NIST ThermoML archive (doi:10.1021/je800787t).
± gives the expanded uncertainty stated by the source.

How the values were obtained:
[1] = refractive index (other wavelength) (dimensionless); xn = mol fraction of the nth substance listed; conditions: 101.3 kPa, Liquid, Wavelength=632.8 nm, Standard Abbe refractometry
[2] = refractive index (other wavelength) (dimensionless); conditions: 101.33 kPa, Liquid, Wavelength=632.8 nm, Standard Abbe refractometry

Which results are given for CCCCCCCCCC [decane] + COC(=O)OC?
refractive index ([1]; 287.95 K, x2 = 0.101): 1.4095 ± 0.0008; refractive index ([1]; 287.95 K, x2 = 0.204): 1.4062 ± 0.0008; refractive index ([1]; 287.95 K, x2 = 0.3): 1.403 ± 0.0008; refractive index ([1]; 287.95 K, x2 = 0.401): 1.3995 ± 0.0008; refractive index ([1]; 287.95 K, x2 = 0.501): 1.3958 ± 0.0008; refractive index ([1]; 287.95 K, x2 = 0.605): 1.3917 ± 0.0008; refractive index ([1]; 287.95 K, x2 = 0.686): 1.388 ± 0.0008; refractive index ([1]; 287.95 K, x2 = 0.8): 1.3821 ± 0.0008; refractive index ([1]; 287.95 K, x2 = 0.903): 1.3762 ± 0.0008

Which refractive index ([1]; 308.14 K, x2 = 0) does the source give for CCCCCCCCCCCCCC [tetradecane] + COC(=O)OC here?
Its refractive index is 1.4235 ± 0.0008.

What about the refractive index ([1]; 308.14 K, x2 = 0.1) of the same molecule?
The refractive index was 1.4179 ± 0.0008.

What about the refractive index ([1]; 308.14 K, x2 = 0.201) of the same molecule?
Its refractive index is 1.4145 ± 0.0008.

What about the refractive index ([1]; 308.14 K, x2 = 0.3) of the same molecule?
Its refractive index is 1.4107 ± 0.0008.

What about the refractive index ([1]; 308.14 K, x2 = 0.399) of the same molecule?
The refractive index was 1.4067 ± 0.0008.

What about the refractive index ([1]; 308.14 K, x2 = 0.5) of the same molecule?
The refractive index was 1.4019 ± 0.0008.

What about the refractive index ([1]; 308.14 K, x2 = 0.6) of the same molecule?
Its refractive index is 1.3966 ± 0.0008.

And the refractive index ([1]; 308.14 K, x2 = 0.708)?
Its refractive index is 1.3898 ± 0.0008.

What about the refractive index ([1]; 308.14 K, x2 = 0.801) of the same molecule?
The refractive index was 1.3826 ± 0.0008.

What about the refractive index ([1]; 308.14 K, x2 = 0.899) of the same molecule?
Its refractive index is 1.3729 ± 0.0008.

Which refractive index ([1]; 308.14 K, x1 = 1) does the source give for COC(=O)OC [dimethyl carbonate] + CCCCCCCCCCCCCC here?
Its refractive index is 1.3632 ± 0.0008.

With CCCCCCCCCC [decane] as the molecule, how does the refractive index ([2]; 278.87 K) read?
The refractive index was 1.4169 ± 0.0006.

And the refractive index ([2]; 280.1 K)?
The refractive index was 1.4163 ± 0.0006.

What about the refractive index ([2]; 281.3 K) of the same molecule?
Its refractive index is 1.4158 ± 0.0006.

And the refractive index ([2]; 282.48 K)?
Its refractive index is 1.4153 ± 0.0006.

And the refractive index ([2]; 283.62 K)?
The refractive index was 1.4148 ± 0.0006.

And the refractive index ([2]; 284.82 K)?
Its refractive index is 1.4142 ± 0.0006.

What about the refractive index ([2]; 286.06 K) of the same molecule?
The refractive index was 1.4137 ± 0.0006.

And the refractive index ([2]; 287.23 K)?
The refractive index was 1.4132 ± 0.0006.

For CCCCCCCCCCCCCC [tetradecane], which refractive index ([2]; 299.64 K) is on record?
The refractive index was 1.4248 ± 0.0006.

What about the refractive index ([2]; 300.67 K) of the same molecule?
Its refractive index is 1.4244 ± 0.0006.

And the refractive index ([2]; 301.68 K)?
The refractive index was 1.424 ± 0.0006.

What about the refractive index ([2]; 302.71 K) of the same molecule?
Its refractive index is 1.4235 ± 0.0006.

What about the refractive index ([2]; 303.75 K) of the same molecule?
Its refractive index is 1.4231 ± 0.0006.

And the refractive index ([2]; 304.75 K)?
The refractive index was 1.4226 ± 0.0006.

What about the refractive index ([2]; 305.78 K) of the same molecule?
The refractive index was 1.4222 ± 0.0006.

What about the refractive index ([2]; 306.86 K) of the same molecule?
Its refractive index is 1.4218 ± 0.0006.

What about the refractive index ([2]; 307.91 K) of the same molecule?
The refractive index was 1.4213 ± 0.0006.

For COC(=O)OC [dimethyl carbonate], which refractive index ([2]; 277.34 K) is on record?
The refractive index was 1.3749 ± 0.0006.

And the refractive index ([2]; 278.7 K)?
Its refractive index is 1.3743 ± 0.0006.

What about the refractive index ([2]; 280.06 K) of the same molecule?
The refractive index was 1.3737 ± 0.0006.

What about the refractive index ([2]; 281.54 K) of the same molecule?
The refractive index was 1.373 ± 0.0006.

What about the refractive index ([2]; 282.92 K) of the same molecule?
The refractive index was 1.3724 ± 0.0006.

And the refractive index ([2]; 284.24 K)?
Its refractive index is 1.3718 ± 0.0006.

And the refractive index ([2]; 285.53 K)?
The refractive index was 1.3712 ± 0.0006.

What about the refractive index ([2]; 286.93 K) of the same molecule?
Its refractive index is 1.3706 ± 0.0006.

What about the refractive index ([2]; 299.64 K) of the same molecule?
Its refractive index is 1.3647 ± 0.0006.

And the refractive index ([2]; 300.69 K)?
The refractive index was 1.3642 ± 0.0006.

What about the refractive index ([2]; 301.77 K) of the same molecule?
Its refractive index is 1.3637 ± 0.0006.

And the refractive index ([2]; 302.82 K)?
The refractive index was 1.3632 ± 0.0006.

And the refractive index ([2]; 303.91 K)?
Its refractive index is 1.3627 ± 0.0006.

What about the refractive index ([2]; 304.99 K) of the same molecule?
Its refractive index is 1.3622 ± 0.0006.

What about the refractive index ([2]; 306.04 K) of the same molecule?
The refractive index was 1.3617 ± 0.0006.

What about the refractive index ([2]; 307.11 K) of the same molecule?
Its refractive index is 1.3612 ± 0.0006.

And the refractive index ([2]; 308.14 K)?
Its refractive index is 1.3607 ± 0.0006.
